Data: the NIST ThermoML archive (doi:10.1016/j.jct.2013.01.010)

Key:
[1] = xn = mol fraction of the nth substance listed; settings: 101 kPa, Liquid; for speed of sound: Sing-around technique in a fixed-path interferometer; for mass density: Vibrating tube method
[2] = excess molar enthalpy (molar enthalpy of mixing); xn = mol fraction of the nth substance listed; settings: 298.15 K, 101 kPa, Liquid, 2-Drop Calorimetry

CCn1cc[n+](C)c1.F[B-](F)(F)F [1-ethyl-3-methylimidazolium tetrafluoroborate] + CC(C)=O
[1]
Settings	mass density, 293.15 K [kg/m3]	mass density, 298.15 K [kg/m3]	mass density, 303.15 K [kg/m3]	mass density, 308.15 K [kg/m3]	speed of sound, 293.15 K [m/s]	speed of sound, 298.15 K [m/s]	speed of sound, 303.15 K [m/s]	speed of sound, 308.15 K [m/s]
x1 = 0.1214	933.27	928.61	923.44	918.15	1241.1	1221	1193.4	1172.8
x1 = 0.1789	987.63	983.61	978.74	973.95	1280.4	1261.7	1233.4	1211.1
x1 = 0.2147	1017.82	1013.85	1009.37	1004.85	1307.6	1290.7	1262.9	1238.4
x1 = 0.2813	1066.88	1063.3	1059.25	1055.19	1360.4	1349.9	1321.9	1295.2
x1 = 0.3219	1092.73	1089.56	1085.84	1082.01	1394.1	1386.6	1358.3	1331
x1 = 0.3649	1117.49	1114.19	1110.78	1107.15	1429.2	1423.4	1398.5	1367.9
x1 = 0.4193	1144.91	1141.69	1138.75	1135.16	1473.1	1469.1	1449.6	1417.4
x1 = 0.4714	1167.62	1164.64	1161.69	1158.46	1507.7	1510.2	1490.7	1458.4
x1 = 0.5217	1186.9	1183.85	1181.07	1177.84	1539.7	1539.6	1526.3	1498
x1 = 0.5772	1205.54	1202.14	1199.7	1196.16	1566	1566.1	1559.2	1531
x1 = 0.6319	1221.27	1217.91	1215.28	1211.72	1583	1585.4	1579.8	1558.2
x1 = 0.6768	1232.69	1229.09	1226.6	1222.91	1593.5	1591.6	1587.6	1574.7
x1 = 0.7199	1242.54	1238.8	1236.06	1232.31	1601.6	1596.9	1594	1587.8
x1 = 0.7724	1252.97	1249.12	1246.25	1242.25	1604.7	1595.8	1592.9	1595.8
x1 = 0.8304	1263	1258.91	1255.95	1251.74	1607.5	1595.9	1591.6	1597.6
x1 = 0.8766	1269.84	1265.74	1262.51	1258.3	1610	1595.9	1589.9	1597.6
x1 = 0.9011	1273.08	1268.96	1265.71	1261.43	1612.6	1596.6	1589.4	1597.9
x1 = 0.9203	1275.47	1271.38	1267.99	1263.7	1614.6	1599	1591	1597.3

[2]
Settings	excess molar enthalpy [kcal/mol]
x1 = 0.0987	-0.0136
x1 = 0.1451	-0.0198
x1 = 0.1991	-0.0272
x1 = 0.2547	-0.0339
x1 = 0.3012	-0.038
x1 = 0.3428	-0.0423
x1 = 0.3984	-0.0461
x1 = 0.4425	-0.0483
x1 = 0.4851	-0.0497
x1 = 0.5335	-0.0502
x1 = 0.6021	-0.048
x1 = 0.6689	-0.0454
x1 = 0.7148	-0.0418
x1 = 0.7723	-0.0359
x1 = 0.8227	-0.0289
x1 = 0.8769	-0.0213
x1 = 0.9012	-0.0174
x1 = 0.9113	-0.016

CCn1cc[n+](C)c1.F[B-](F)(F)F [1-ethyl-3-methylimidazolium tetrafluoroborate] + C[S+](C)[O-]
[1]
Settings	mass density, 293.15 K [kg/m3]	mass density, 298.15 K [kg/m3]	mass density, 303.15 K [kg/m3]	mass density, 308.15 K [kg/m3]	speed of sound, 293.15 K [m/s]	speed of sound, 298.15 K [m/s]	speed of sound, 303.15 K [m/s]	speed of sound, 308.15 K [m/s]
x1 = 0.1319	1154.13	1149.63	1145.2	1140.37	1533	1514.8	1498.7	1481.3
x1 = 0.1819	1170.55	1166.13	1161.81	1157.02	1544.4	1526.6	1510.3	1492.8
x1 = 0.2336	1185.68	1181.3	1177.06	1172.25	1556.2	1538.6	1522.2	1504.7
x1 = 0.2909	1200.5	1196.12	1191.89	1187.15	1567.8	1551	1535.1	1517.4
x1 = 0.3417	1212.05	1207.64	1203.45	1198.76	1577.3	1561.5	1545.4	1528.1
x1 = 0.3799	1219.83	1215.48	1211.24	1206.59	1584	1568.7	1552.3	1535.9
x1 = 0.4215	1227.57	1223.18	1219.02	1214.39	1589.9	1575.8	1559.5	1543.2
x1 = 0.4719	1236	1231.61	1227.4	1222.88	1596.3	1583.7	1567.7	1552
x1 = 0.5335	1244.97	1240.56	1236.44	1232.02	1602.8	1591.2	1575.8	1560.5
x1 = 0.5782	1250.68	1246.29	1242.17	1237.86	1606.2	1595.6	1580.4	1566.1
x1 = 0.6198	1255.44	1251.13	1247.04	1242.76	1608.8	1598.6	1584.3	1571
x1 = 0.6717	1260.78	1256.5	1252.45	1248.28	1611	1601.8	1588.6	1575.9
x1 = 0.7204	1265.23	1260.99	1257	1252.91	1613	1604.4	1591.7	1579.7
x1 = 0.7737	1269.58	1265.39	1261.48	1257.45	1614.7	1606.4	1594.6	1583.2
x1 = 0.8219	1273.1	1268.95	1265.1	1261.11	1616.4	1607.9	1596.8	1586
x1 = 0.8783	1276.82	1272.74	1268.97	1264.97	1619.2	1610.3	1599.7	1588.9
x1 = 0.9041	1278.42	1274.36	1270.62	1266.61	1621	1611.6	1601.1	1590.4
x1 = 0.9249	1279.65	1275.62	1271.9	1267.87	1622.6	1612.9	1602.2	1591.6

[2]
Settings	excess molar enthalpy [kcal/mol]
x1 = 0.1116	-0.104
x1 = 0.1785	-0.159
x1 = 0.2157	-0.192
x1 = 0.2854	-0.233
x1 = 0.3259	-0.256
x1 = 0.3981	-0.281
x1 = 0.4368	-0.285
x1 = 0.4852	-0.29
x1 = 0.5111	-0.291
x1 = 0.5729	-0.281
x1 = 0.6255	-0.26
x1 = 0.6899	-0.232
x1 = 0.7365	-0.208
x1 = 0.7943	-0.168
x1 = 0.8338	-0.137
x1 = 0.8896	-0.0906
x1 = 0.9012	-0.0839
x1 = 0.9258	-0.0619
